# Active and inactive are the calls of the source.
# Assays:
# [1] = biological target: T1, Neuronal acetylcholine receptor; alpha4/beta2 (Homo sapiens) (UniProt P17787+P43681); test: Positive allosteric modulation at human alpha4beta2 nAChR expressed in HEK293 cells assessed as potentiation of (3R)-1-pyridin-3-ylpyrrolidin-3-amine-induced calcium flux preincubated for 5 mins followed by agonist addition measured for 3 to 5 mins by FLIPR assay relative to control; format: cell-based; set-up: concentration or dose not given beside the values
# [2] = biological target: T1, Neuronal acetylcholine receptor; alpha4/beta2 (Homo sapiens); test: (§1) Positive allosteric modulation at human alpha4beta2 nAChR expressed in HEK293 cells assessed as potentiation of 5-[(2R)-azetidin-2-ylmethoxy]-2-chloropyridine-induced calcium flux preincubated for 5 mins followed by agonist addition measured for 3 to 5 mins by FLIPR assay relative to control; format: cell-based; set-up: concentration or dose not given beside the values
# Rattus norvegicus [3] = test: (§2) Potentiation of 5-[(2R)-Azetidin-2-yl methoxy]-2-chloropyridine-induced antinociceptive activity in Sprague-Dawley rat assessed as reversal of tight ligation of L5-L6 spinal nerves-mediated mechanical allodynia by measuring paw withdrawal threshold at 10 mg/kg, ip administered prior to agonist treatment measured after 30 mins (reference value: 24%); format: functional
# Rattus norvegicus [4] = test: (§3) Potentiation of 3 umol/kg of (1S,5S)-3-(3,6-diaza-bicyclo[3.2.0]hept-3-yl)-quinoline-induced antinociceptive activity in Sprague-Dawley rat assessed as reversal of tight ligation of L5-L6 spinal nerves-mediated mechanical allodynia by measuring paw withdrawal threshold at 35 umol/kg, ip administered prior to agonist treatment measured after 30 mins; format: functional
# [5] = biological target: T1, Neuronal acetylcholine receptor; alpha4/beta2 (Homo sapiens); test: Positive allosteric modulation at human alpha4beta2 nAChR expressed in HEK293 cells assessed as potentiation of varenicline-induced calcium flux preincubated for 5 mins followed by agonist addition measured for 3 to 5 mins by FLIPR assay; format: cell-based
# [6] = biological target: T1, Neuronal acetylcholine receptor; alpha4/beta2 (Homo sapiens); test: Positive allosteric modulation at human alpha4beta2 nAChR expressed in HEK293 cells assessed as potentiation of ispronicline-induced calcium flux preincubated for 5 mins followed by agonist addition measured for 3 to 5 mins by FLIPR assay; format: cell-based
# [7] = biological target: T1, Neuronal acetylcholine receptor; alpha4/beta2 (Homo sapiens); test: as §1, with “flux at 10 uM” for “flux”; format: cell-based
# Rattus norvegicus [8] = test: as §2, with “measuring increase in” for “measuring”, “3.5 umol/kg,” for “10 mg/kg,”, “mins” for “mins (reference value: 24%)”; format: functional, organism-based
# [9] = Toxicity in ferret assessed as emesis at 3.5 umol/kg after 30 mins measured for 90 mins; set-up: species or system Mustela putorius furo; conditions: in vivo, 1.5 h
# Rattus norvegicus [10] = test: as §3, with “of 30” for “of 3”; format: functional
# [11] = biological target: T1, Neuronal acetylcholine receptor; alpha4/beta2 (Homo sapiens); test: Positive allosteric modulation at human alpha4beta2 nAChR expressed in HEK293 cells assessed as potentiation of 2-methyl-3-(2-(S)-pyrrolidinylmethoxy)pyridine-induced calcium flux preincubated for 5 mins followed by agonist addition measured for 3 to 5 mins by FLIPR assay; format: cell-based
# [12] = Toxicity in ferret assessed as emesis at 3.5 umol/kg administered 30 mins prior to agonist treatment measured for 90 mins in presence of 5-[(2R)-Azetidin-2-yl methoxy]-2-chloropyridine; set-up: species or system Mustela putorius furo; conditions: in vivo, 1.5 h
# [13] = biological target: T1, Neuronal acetylcholine receptor; alpha4/beta2 (Homo sapiens); test: Positive allosteric modulation at human alpha4beta2 nAChR expressed in HEK293 cells assessed as potentiation of (3R)-1-pyridin-3-ylpyrrolidin-3-amine-induced calcium flux at 10 uM preincubated for 5 mins followed by agonist addition measured for 3 to 5 mins by FLIPR assay relative to control; format: cell-based
# Rattus norvegicus [14] = test: Potentiation of 5-[(2R)-Azetidin-2-yl methoxy]-2-chloropyridine-induced antinociceptive activity in ip dosed Sprague-Dawley rat assessed as reversal of tight ligation of L5-L6 spinal nerves-mediated mechanical allodynia by measuring paw withdrawal threshold administered prior to agonist treatment measured after 30 mins; format: functional
# [15] = biological target: T1, Neuronal acetylcholine receptor; alpha4/beta2 (Homo sapiens); test: Positive allosteric modulation at human alpha4beta2 nAChR expressed in HEK293 cells assessed as potentiation of (1S,5S)-3-(3,6-diaza-bicyclo[3.2.0]hept-3-yl)-quinoline-induced calcium flux preincubated for 5 mins followed by agonist addition measured for 3 to 5 mins by FLIPR assay; format: cell-based
# Rattus norvegicus [16] = test: Antinociceptive activity in Sprague-Dawley rat assessed as reversal of tight ligation of L5-L6 spinal nerves-induced mechanical allodynia by measuring paw withdrawal threshold at 500 umol/kg, ip measured after 30 mins; format: functional
SMILES,Activity [1] [%],Activity [2] [%],also measured
O=c1ccc(-c2noc(-c3cccnc3)n2)c[nH]1,120 to 150,120 to 150,–
c1cc(-c2noc(-c3cccnc3)n2)cc(-c2nnn[nH]2)c1,90 to 120,90 to 120,–
Fc1ccc(-c2nc(-c3cccnc3)no2)cc1F,200 to 400,200 to 400,–
c1cncc(-c2noc(-c3cccnc3)n2)c1,200 to 400,200 to 400,–
N#Cc1cccc(-c2nc(-c3cccnc3)no2)c1,–,–,Activity (Rattus norvegicus [3]): 76%; Activity (Rattus norvegicus [4]): 41%; Activity [5]: Active; Activity [6]: Active; Activity [7]: 200 to 400%; fold change (FC) [7]: 10 to 100; Activity (Rattus norvegicus [8]): Active; Activity [9]: Non-Toxic; Activity (Rattus norvegicus [10]): 56%; Activity [11]: Active; Activity [12]: Non-Toxic; Activity [13]: 200 to 400%; fold change (FC) [13]: 10 to 100; Activity (Rattus norvegicus [14]): Dose-dependent effect; Activity (Rattus norvegicus [14]; record 2): 33 - 63%; Activity [15]: Active
N#Cc1cccc(-c2noc(-c3ccc(Cl)nc3)n2)c1,150 to 200,150 to 200,–
N#Cc1ccc(-c2nc(-c3cccnc3)no2)cc1,150 to 200,150 to 200,–
Oc1cncc(-c2nc(-c3cccnc3)no2)c1,90 to 120,90 to 120,–
Clc1cc(-c2noc(-c3cccnc3)n2)ccn1,120 to 150,120 to 150,–
N#Cc1cccc(-c2noc(-c3cccnc3)n2)c1,200 to 400,200 to 400,–
O=[N+]([O-])c1cccc(-c2nc(-c3cccnc3)no2)c1,200 to 400,200 to 400,–
Brc1cncc(-c2nc(-c3cccnc3)no2)c1,120 to 150,120 to 150,–
Fc1cccc(-c2nc(-c3cccnc3)no2)c1F,200 to 400,200 to 400,–
NCC1(CC(=O)O)CCCCC1 [GABAPENTIN],–,–,Activity (Rattus norvegicus [16]): 58%
Cc1ccc(-c2noc(-c3cccc(C#N)c3)n2)cn1,150 to 200,150 to 200,–
N#Cc1cccc(-c2noc(-c3ccc(F)nc3)n2)c1,150 to 200,150 to 200,–
CC(=O)c1cccc(-c2nc(-c3cccnc3)no2)c1,150 to 200,150 to 200,–
NS(=O)(=O)c1cccc(-c2nc(-c3cccnc3)no2)c1,200 to 400,200 to 400,–
CS(=O)(=O)c1cccc(-c2nc(-c3cccnc3)no2)c1,120 to 150,120 to 150,–

# From ChEMBL document CHEMBL3880409, “Pharmaceutical compositions and their methods of use” (2008)
